# Assay results taken from US20220298253A1, “TREATMENT OF RMS BY SWITCHING THERAPY” (Novartis AG, priority 2019, published 2022).
# Entries after “also recorded” stand apart in the source; their conditions may differ. Read-outs that look alike come from different tables or passages of the source.
# Columns and labels:
# [1] = system: patients with multiple sclerosis; conditions: cited from earlier work; for clinical and MRI course after anti-CD20 infusion: case reports, rebound after fingolimod cessation (Hatcher et al. 2016; Schmidt and Schulten 2019)
# MS patients [2] = assay: ASCLEPIOS I: MSIS-29 impact score; format: in vivo, human
# Experimental: The MSIS-29 version 2 is a 29-item, self-administered questionnaire that includes 2 domains: physical and psychological. Responses were captured on a 4-point ordinal scale ranging from 1 (not at all) to 4 (extremely), with higher scores reflecting greater impact on day-to-day life. The MSIS-29 takes about 5 minutes to complete and the questions are designed to determine the patient's views about the impact of MS on their day-to-day life during the past 2 weeks. Reference is made to Hobart J and Cano S (2009), “Improving the evaluation of therapeutic interventions in multiple sclerosis: the role of new psychometric methods”, Health Technol Assess; 13(12):iii, ix-x, […] to Hobart J, Lamping D, Fitzpatrick R, et al (2001), “The Multiple Sclerosis Impact Scale (MSIS-29): a new patient-based outcome measure”, Brain; 124(Pt 5):962-73.
# (§1) In ASCLEPIOS I patients were randomised (1:1) to receive either ofatumumab 20 mg sc injections every 4 weeks (after an initial loading regimen of 20 mg sc doses on Days 1, 7 and 14) or teriflunomide 14 mg orally once daily, for up to 30 months. Patients aged 18-55 years with an Expanded Disability Status Scale (EDSS) score (according to Kurtzke, Neurology. 1983, November; 33(11): 1444-52) of 0-5.5 at screening who experienced ≥1 relapse in the past year or ≥2 relapses in the past 2 years or a positive gadolinium-enhancing (Gd+) MM scan during the year before randomisation were included.
# MS patients [3] = assay: ASCLEPIOS I: loss of thalamus volume; format: in vivo, human; conditions: for thalamus volume, mean percentage change between Month 24 and baseline: ASCLEPIOS I
# Experimental: as §1
# primary human B cells [4] = assay: Ofatumumab-induced CDC of freshly isolated primary human B cells; format: cell-based; conditions: antibody and 30% human serum added simultaneously, 1 hour, flow cytometry; compared to ocrelizumab and rituximab; FIG. 2
# primary human B cells [5] = assay: CDC after delayed addition of complement; format: cell-based; conditions: cells washed, complement source added after 6 hours; FIG. 3
# Experimental: In a second experiment, B cells were incubated with antibody as described before, albeit in the absence of a source of complement. Cells were washed as described previously. After 6 hours, the source of complement was added.
# MS patients [6] = conditions: cited from earlier work; for reduction in annualized relapse rate (ARR) compared to Aubagio (teriflunomide): p<0.001
# [7] = system: patients with relapsing MS; assay: Number of relapses in patients switched from an earlier DMT to ofatumumab (Example 2); format: in vivo, human; conditions: for Mean NURLP12: number of relapses in past 12 months (screening) / Mean NURLP24a: number of relapses in past 24 months (screening): before switch
# Experimental: (§2) The effect of ofatumumab administered to patients who have been treated with DMTs other than ofatumumab has been investigated as described below.
# (§3) Ofatumumab was provided in pre-filled syringes for subcutaneous administration containing 20 mg ofatumumab (50 mg/ml, 0.4 ml content). The matching placebo to ofatumumab pre-filled syringe had the same appearance as the investigational drug.
# (§4) Ofatumumab arm: ofatumumab 20 mg s.c. injections on Day 1, 7, 14, Week 4 (Study Month 1) and every 4 weeks thereafter+teriflunomide-matching placebo capsule orally once daily.
# (§5) Eligible patients can be randomized in a 1:1 ratio to either the active ofatumumab 20 mg group or to the active teriflunomide 14 mg group. The randomization was stratified by geographical region and by MS subtype (RRMS, SPMS).
# (§6) Diagnosis of MS according to the 2010 Revised McDonald criteria (Polman et al. 2011).
# (§7) Relapsing MS: relapsing-remitting course (RRMS), or secondary progressive (SPMS) course with disease activity, as defined by Lublin et al., 2014.
# (§8) Disability status at Screening with an EDSS score of 0 to 5.5 (inclusive).
# (§9) Patients previously treated with DMT selected from glatiramer acetate, dimethyl fumarate (DMF), daclizumab, fingolimod, natalizumab and laquinimod.
# (§10) Documentation of at least: 1 relapse during the previous 1 year OR 2 relapses during the previous 2 years prior to Screening OR a positive Gd-enhancing MM scan during the year prior to randomization. Note: Screening MRI scan may be used if no positive Gd enhancing scan exist from prior year.
# (§11) Neurologically stable within 1 month prior to randomization
# [8] = system: patients with relapsing MS; assay: Gd-enhancing T1 lesion numbers in patients switched from an earlier DMT to ofatumumab (Example 2); format: in vivo, human
# Experimental: as §2, §3, §4, §5, §6, §7, §8, §9, §10, §11
# The following results were obtained for the Gd lesion numbers.
# [9] = Half-life of ofatumumab at steady state; format: in vivo; conditions: following subcutaneous administration of repeated 20 mg doses
# [10] = earlier DMT fingolimod, ofatumumab 20 mg s.c.
# [11] = earlier DMT fingolimod, ofatumumab 20 mg s.c., listed as OMB
molecule,measurement,setting,value
rituximab: anti-CD20 mAb administered by intravenous infusion,clinical and MRI course after anti-CD20 infusion,[1],clinical worsening; also recorded: persistent Gd-enhancing lesions
ocrelizumab: anti-CD20 mAb administered by intravenous infusion,clinical and MRI course after anti-CD20 infusion,[1],clinical worsening and new Gd-enhancing MRI lesions
same,EDSS course after administration,"[1]; two patients, more than 3 months after fingolimod withdrawal, FIG. 1",significant Expanded Disability Status Scale (EDSS) progression
"C/C(O)=C(\C#N)C(=O)Nc1ccc(C(F)(F)F)cc1 [teriflunomide, reference compound]",mean change in MSIS-29 physical impact score from baseline,MS patients [2]; Month 6,−0.44
same,mean change in MSIS-29 physical impact score from baseline,MS patients [2]; Month 12,0.17
same,mean change in MSIS-29 physical impact score from baseline,MS patients [2]; Month 18,0.67
same,mean change in MSIS-29 physical impact score from baseline,MS patients [2]; Month 24,0.59
same,mean change in MSIS-29 physical impact score from baseline,MS patients [2]; Month 30,0.55
same,"thalamus volume, mean percentage change between Month 24 and baseline",MS patients [3],−1.4%
ofatumumab: recombinant human monoclonal immunoglobulin G1 (IgG1) antibody that binds to human CD20,"induction of CDC (B cell lysis, SYTOX Blue+ cells)",primary human B cells [4],strong concentration-dependent induction
same,mean change in MSIS-29 physical impact score from baseline,MS patients [2]; Month 6,−2.75
same,"MSIS-29 physical impact score, mean difference ofatumumab vs teriflunomide","MS patients [2]; Month 6, p=0.017",−2.30
same,mean change in MSIS-29 physical impact score from baseline,MS patients [2]; Month 12,−2.43
same,"MSIS-29 physical impact score, mean difference ofatumumab vs teriflunomide","MS patients [2]; Month 12, p=0.009",−2.59
same,mean change in MSIS-29 physical impact score from baseline,MS patients [2]; Month 18,−2.37
same,"MSIS-29 physical impact score, mean difference ofatumumab vs teriflunomide","MS patients [2]; Month 18, p=0.005",−3.05
same,mean change in MSIS-29 physical impact score from baseline,MS patients [2]; Month 24,−2.6
same,"MSIS-29 physical impact score, mean difference ofatumumab vs teriflunomide","MS patients [2]; Month 24, p=0.008",−3.19
same,mean change in MSIS-29 physical impact score from baseline,MS patients [2]; Month 30,−3.21
same,"MSIS-29 physical impact score, mean difference ofatumumab vs teriflunomide","MS patients [2]; Month 30, p=0.026",−3.76
same,MSIS-29 psychological impact score vs teriflunomide treatment group,MS patients [2]; difference statistically significant only at Month 12,stronger reduction
same,"thalamus volume, mean percentage change between Month 24 and baseline",MS patients [3],−1.00%
same,"thalamus volume change, mean difference ofatumumab vs teriflunomide","MS patients [3]; Month 24, p=0.002",0.40
same,induction of CDC after delayed addition of complement,primary human B cells [5],potently induced CDC
same,suppression of gadolinium (Gd) T1 lesions compared to Aubagio,MS patients [6]; ASCLEPIOS I/II,highly significant suppression
same,annualized relapse rate (ARR),MS patients [6]; ASCLEPIOS I,0.11
same,reduction in annualized relapse rate (ARR) compared to Aubagio (teriflunomide),MS patients [6]; ASCLEPIOS I,50.5%
same,annualized relapse rate (ARR),MS patients [6]; ASCLEPIOS II,0.10
same,reduction in annualized relapse rate (ARR) compared to Aubagio (teriflunomide),MS patients [6]; ASCLEPIOS II,58.5%
same,relative risk reduction in 3-month confirmed disability progression (CDP) versus Aubagio,"MS patients [6]; pre-specified pooled analyses, p=0.002",34.4%
same,relative risk reduction in 6-month confirmed disability progression (CDP) versus Aubagio,"MS patients [6]; pre-specified pooled analyses, p=0.012",32.5%
same,Mean NCFRLP12: number of relapses up to month 12 post-first dose,[7]; earlier DMT DMF,0.21
same,Mean NCFRLP24: number of relapses up to month 24 post-first dose,[7]; earlier DMT DMF,0.39
same,Mean NURLP12: number of relapses in past 12 months (screening),[7]; earlier DMT DMF,1.11
same,Mean NURLP24a: number of relapses in past 24 months (screening),[7]; earlier DMT DMF,2
same,Mean NCFRLP12: number of relapses up to month 12 post-first dose,[7]; earlier DMT daclizumab,0
same,Mean NCFRLP24: number of relapses up to month 24 post-first dose,[7]; earlier DMT daclizumab,0
same,Mean NURLP12: number of relapses in past 12 months (screening),[7]; earlier DMT daclizumab,1
same,Mean NURLP24a: number of relapses in past 24 months (screening),[7]; earlier DMT daclizumab,1.18
same,Mean NURLP12: number of relapses in past 12 months (screening),[7]; earlier DMT fingolimod,approx. 1.26
same,Mean NURLP24a: number of relapses in past 24 months (screening),[7]; earlier DMT fingolimod,2.28
same,Mean NURLP12: number of relapses in past 12 months (screening),"[7]; earlier DMT fingolimod, listed as OMB",1.26
same,Mean NCFRLP12: number of relapses up to month 12 post-first dose,[7]; [10],approx. 0.23
same,Mean NCFRLP24: number of relapses up to month 24 post-first dose,[7]; [10],about 0.30
same,Mean NCFRLP12: number of relapses up to month 12 post-first dose,[7]; [11],0.23
same,Mean NCFRLP24: number of relapses up to month 24 post-first dose,[7]; [11],0.31
same,Mean NCFRLP12: number of relapses up to month 12 post-first dose,[7]; earlier DMT glatiramer acetate,0.10
same,Mean NCFRLP24: number of relapses up to month 24 post-first dose,[7]; earlier DMT glatiramer acetate,0.17
same,Mean NURLP12: number of relapses in past 12 months (screening),[7]; earlier DMT glatiramer acetate,1.21
same,Mean NURLP24a: number of relapses in past 24 months (screening),[7]; earlier DMT glatiramer acetate,2.13
same,Mean NCFRLP12: number of relapses up to month 12 post-first dose,[7]; earlier DMT natalizumab,0.13
same,Mean NCFRLP24: number of relapses up to month 24 post-first dose,[7]; earlier DMT natalizumab,0.2
same,Mean NURLP12: number of relapses in past 12 months (screening),[7]; earlier DMT natalizumab,1.2
same,Mean NURLP24a: number of relapses in past 24 months (screening),[7]; earlier DMT natalizumab,2.37
same,Mean Gd lesion number,"[8]; earlier DMT DMF, BASELINE",2.02
same,Mean Gd lesion number,"[8]; earlier DMT DMF, Week 48",0
same,Mean Gd lesion number,"[8]; earlier DMT DMF, Week 96",0
same,Mean Gd lesion number,"[8]; earlier DMT daclizumab, BASELINE",0.18
same,Mean Gd lesion number,"[8]; earlier DMT daclizumab, Week 48",0
same,Mean Gd lesion number,"[8]; earlier DMT daclizumab, Week 96",0
same,Mean Gd lesion number,"[8]; earlier DMT fingolimod, BASELINE",2.95
same,Mean Gd lesion number,"[8]; earlier DMT fingolimod, Week 48",0.03
same,Mean Gd lesion number,"[8]; earlier DMT fingolimod, Week 96",0
same,Mean Gd lesion number,"[8]; earlier DMT glatiramer acetate, BASELINE",1.52
same,Mean Gd lesion number,"[8]; earlier DMT glatiramer acetate, Week 48",0.02
same,Mean Gd lesion number,"[8]; earlier DMT glatiramer acetate, Week 96",0.02
same,Mean Gd lesion number,"[8]; earlier DMT natalizumab, BASELINE",2.5
same,Mean Gd lesion number,"[8]; earlier DMT natalizumab, Week 48",0.04
same,Mean Gd lesion number,"[8]; earlier DMT natalizumab, Week 96",0
same,half-life at steady state,[9],approximately 16 days
